The record followed here is patent publication US20240262832A1, “SMALL MOLECULE MODULATORS OF GLUCOCEREBROSIDASE ACTIVITY AND USES THEREOF” (Vanqua Bio, Inc., priority 2021, published 2024).

The target in this assay is T1, GCase (Homo sapiens, UniProt P04062).
T1 construct: endogenous in cells; host or cells: HeLa cells
T1 sequence (P04062 40-536): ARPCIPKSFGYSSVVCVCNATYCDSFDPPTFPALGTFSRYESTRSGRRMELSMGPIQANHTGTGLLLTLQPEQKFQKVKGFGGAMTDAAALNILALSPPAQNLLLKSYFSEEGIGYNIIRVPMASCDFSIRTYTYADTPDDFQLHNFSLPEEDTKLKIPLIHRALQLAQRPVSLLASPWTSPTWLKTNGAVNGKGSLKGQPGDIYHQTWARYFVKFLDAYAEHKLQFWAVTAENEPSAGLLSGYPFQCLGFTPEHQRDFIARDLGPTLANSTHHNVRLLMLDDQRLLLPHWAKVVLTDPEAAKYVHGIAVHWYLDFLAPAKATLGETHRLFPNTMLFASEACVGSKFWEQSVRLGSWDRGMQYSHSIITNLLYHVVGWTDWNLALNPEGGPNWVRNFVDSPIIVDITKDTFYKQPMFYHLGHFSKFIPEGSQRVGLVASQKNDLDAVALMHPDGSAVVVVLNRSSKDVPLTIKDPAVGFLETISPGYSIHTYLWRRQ
Put plainly: activation of GCase in a live cell PFB assay in HELA cells. It is filed as cell-based.
Broadly, the EC50 is the concentration needed to bring the measured effect to its halfway point. Read a low EC50 as an effect from little substance. `CC1CCC(COc2cccnc2C(F)(F)F)CN1c1cnc2cnn(C3COC3)c2n1` (stereo not shown) [Compound 117, 6-(2-Methyl-5-(((2-(trifluoromethyl)pyridin-3-yl)oxy)methyl)piperidin-1-yl)-1-(oxetan-3-yl)-1H-pyrazolo[3,4-b]pyrazine] registered a 50% effective concentration (EC50) of less than 10 µM. For the compound `CN1CCc2cc(C(=O)N3CCCC(COc4ccccc4)C3)ccc21` (stereo not shown) [Compound 181], the 50% effective concentration (EC50) was 10 to 50 µM. Compound `COc1ccc(OCC2CCN(C(=O)CC3CCOC3)CC2)cc1` (stereo not shown) [Compound 472] returned an EC50 of 50 to 100 µM.

The compound `C[C@@H]1CC[C@H](COc2ccncc2C(F)(F)F)CN1c1cnc2cnn(CC(F)F)c2n1` [Compound 282, 1-(2,2-Difluoroethyl)-6-((2R,5S)-2-methyl-5-(((3-(trifluoromethyl)pyridin-4-yl)oxy)methyl)piperidin-1-yl)-1H-pyrazolo[3,4-b]pyrazine] returned a concentration for a half-maximal effect (EC50) of less than 10 µM.

With `CCn1ncnc1CN1CCC(COc2ccc(OC)cc2)CC1` [Compound 455], the half-maximal effective concentration (EC50) lay in the range of 10 to 50 µM. Take `CCc1nc(CNC(=O)N2CCC(COc3ccc(OC)cc3)CC2)no1` [Compound 460]: the half-maximal effective concentration (EC50) lay in the range of 50 to 100 µM.

Regarding `CC1CC(COc2cccnc2C(F)(F)F)CN(C(=O)c2ccc3cc[nH]c3c2)C1` (single isomer, unassigned) [Compound 252b], the EC50 was less than 10 µM. As for `COc1ccc(OCC2CCN(C(=O)Nc3cnn(C)c3C)CC2)cc1` [Compound 439], the figure is 50 to 100 µM; as for `CCc1ncc(C(=O)N2CCC(COc3ccc4c(c3)CCC4)CC2)cn1` [Compound 426], 10 to 50 µM; as for `Cc1cc(C(=O)N2CCCC(COc3ccccc3)C2)c(C)n1C(C)C` (stereo not shown) [Compound 170], 10 to 50 µM. As for `COc1ccc(OCC2CCN(C(=O)NCCc3cn[nH]c3)CC2)cc1` [Compound 432], the figure is 50 to 100 µM. As for `O=C(c1ccc2cc[nH]c2c1)N1CCC(COc2ccccc2)CC1` [Compound 416, 6-[4-(Phenoxymethyl)piperidine-1-carbonyl]-1H-indole], the 50% effective concentration (EC50) fell in the range of 10 to 50 µM. The compound `C[C@@H]1C[C@H](COc2cccnc2C(F)(F)F)CN(c2cnc3cnn(CC45CC(C4)C5)c3n2)C1` [Compound 281, 1-(Bicyclo[1.1.1]pentan-1-ylmethyl)-6-((3R,5S)-3-methyl-5-(((2-(trifluoromethyl)pyridin-3-yl)oxy)methyl)piperidin-1-yl)-1H-pyrazolo[3,4-b]pyrazine] returned an EC50 of less than 10 µM. The compound `O=C(CCc1cccc(C(F)(F)F)c1)N1CCCC(COc2ccccc2)C1` (stereo not shown) [Compound 150] registered an EC50 of 10 to 50 µM. As for `COC1CC(COc2cccnc2C(F)(F)F)CN(c2cnc3cnn(CC(F)F)c3n2)C1` (stereo not shown) [Compound 291, 1-(2,2-Difluoroethyl)-6-(3-methoxy-5-(((2-(trifluoromethyl)pyridin-3-yl)oxy)methyl)piperidin-1-yl)-1H-pyrazolo[3,4-b]pyrazine], the figure is less than 10 µM; as for `Cn1c(-c2ccc(F)cn2)nc2ncc(N3C[C@@H]4[C@@H](COc5cc(F)cc(F)c5)[C@@H]4C3)nc21` [Compound 286, 6-((1R,5S,6r)-6-((3,5-Difluorophenoxy)methyl)-3-azabicyclo[3.1.0]hexan-3-yl)-2-(5-fluoropyridin-2-yl)-1-methyl-1H-imidazo[4,5-b]pyrazine], greater than 100 µM; as for `Fc1cc(F)cc(OC[C@@H]2[C@H]3CN(c4cnc5cnn(C6COC6)c5n4)C[C@@H]23)c1` [Compound 124], 10 to 50 µM. `COC(C(=O)N1CCCC(COc2ccccc2)C1)c1ccc(Cl)cc1` (stereo not shown) [Compound 153] displayed a half-maximal effective concentration (EC50) of 10 to 50 µM. Regarding `COc1ccc(OCC2CCN(CC(C)(C)N3CCOCC3)CC2)cc1` [Compound 467], the EC50 is greater than 100 µM. As for `FC(F)Cn1ncc2ncc(N3C[C@@H]4[C@@H](COc5cnccc5C(F)(F)F)[C@@H]4C3)nc21` [Compound 91, (1R,5S,6S)-3-[1-(2,2-difluoroethyl)-1H-pyrazolo[3,4-b]pyrazin-6-yl]-6-({[4-(trifluoromethyl)pyridin-3-yl]oxy}methyl)-3-azabicyclo[3.1.0]hexane], the figure is 10 to 50 µM; as for `COc1ccc(OCC2CCN(Cc3noc(C4CCCO4)n3)CC2)cc1` (stereo not shown) [Compound 471], 50 to 100 µM; as for `FC(F)Cn1ncc2ncc(N3C[C@H](COc4cccnc4C(F)(F)F)C[C@H](OC(F)F)C3)nc21` [Compound 299a, 1-(2,2-Difluoroethyl)-6-((3S,5R)-3-(difluoromethoxy)-5-(((2-(trifluoromethyl)pyridin-3-yl)oxy)methyl)piperidin-1-yl)-1H-pyrazolo[3,4-b]pyrazine], 10 to 50 µM. The value for `O=C(C1CC1)N1CCC(c2cncc(N3CCCC(COc4ccccc4C(F)(F)F)C3)n2)CC1` (stereo not shown) [Compound 113, Cyclopropyl(4-(6-(3-((2-(trifluoromethyl)phenoxy)methyl)piperidin-1-yl)pyrazin-2-yl)piperidin-1-yl)methanone] was less than 10 µM; that for `COc1ccc(OCC2CCN(c3nccc(N4CCCC(O)C4)n3)CC2)cc1` (stereo not shown) [Compound 424] was less than 10 µM; that for `O=C(c1ccc2cc[nH]c2c1)N1CCC(Oc2ncccc2C(F)(F)F)CC1` [Compound 321, (1H-Indol-6-yl)(4-((3-(trifluoromethyl)pyridin-2-yl)oxy)piperidin-1-yl)methanone] was 10 to 50 µM. The value for `C[C@H]1C[C@@H](COc2cccnc2C(F)(F)F)CN(c2cnc3cnn(CC4COC4)c3n2)C1` (single isomer, unassigned) [Compound 233b] was less than 10 µM. As to `CC1CC(COc2cccnc2C(F)(F)F)CN(c2cnc3cnn(CC(F)(F)F)c3n2)C1` (stereo not shown) [Compound 127, 6-(3-Methyl-5-(((2-(trifluoromethyl)pyridin-3-yl)oxy)methyl)piperidin-1-yl)-1-(2,2,2-trifluoroethyl)-1H-pyrazolo[3,4-b]pyrazine], the EC50 is less than 10 µM. The value for `c1ccc(COC2CCN(c3cnc4ccccc4n3)CC2)cc1` [Compound 417, 2-[4-(Benzyloxy)piperidin-1-yl]quinoxaline] was 10 to 50 µM; that for `COCCn1ncc2ncc(N3C[C@@H](C)C[C@@H](COc4cccnc4C(F)(F)F)C3)nc21` [Compound 230a, 1-(2-Methoxyethyl)-6-((3S,5R)-3-methyl-5-(((2-(trifluoromethyl)pyridin-3-yl)oxy)methyl)piperidin-1-yl)-1H-pyrazolo[3,4-b]pyrazine] was 10 to 50 µM; that for `C[C@@H]1CC[C@H](COc2ccc(C(F)(F)F)cn2)CN1c1cnc2cnn(CC(F)F)c2n1` [Compound 275, 1-(2,2-Difluoroethyl)-6-((2R,5S)-2-methyl-5-(((5-(trifluoromethyl)pyridin-2-yl)oxy)methyl)piperidin-1-yl)-1H-pyrazolo[3,4-b]pyrazine] was greater than 100 µM.

For the compound `O=C(c1ccc2ccn(CC3COC3)c2c1)N1CCC[C@H](CCc2ccccc2C(F)(F)F)C1` [Compound 18, 1-[(oxetan-3-yl)methyl]-6-[(3S)-3-{2-[2-(trifluoromethyl)phenyl]ethyl}piperidine-1-carbonyl]-1H-indole], the EC50 lay within 10 to 50 µM. The value for `COc1ccc(OCC2CCN(C(=O)Nc3cccc(CN)c3)CC2)cc1` [Compound 442] was greater than 100 µM. As for `Cc1cccnc1OCC1CCN(C(=O)Cc2cn(C)c3ccccc23)CC1` [Compound 359], the figure is 10 to 50 µM.

The compound `COc1cccc(C(C(=O)N2CCCC(COc3ccccc3)C2)C(C)C)c1` (stereo not shown) [Compound 141] yielded an EC50 of 10 to 50 µM. The value for `C[C@@H](Oc1ccccc1C(F)(F)F)[C@H]1CCCN(c2cnc3cnn(CC(F)F)c3n2)C1` [Compound 266a, 1-(2,2-Difluoroethyl)-6-((S)-3-((R)-1-(2-(trifluoromethyl)phenoxy)ethyl)piperidin-1-yl)-1H-pyrazolo[3,4-b]pyrazine] was 10 to 50 µM. The value for `COc1ccc(OCC2CCN(C(=O)CN3C(=O)CCC3C)CC2)cc1` (stereo not shown) [Compound 483] was 50 to 100 µM; that for `CC(C)Sc1ccc(CC(=O)N2CCC(Oc3ncccc3C#N)CC2)cc1` [Compound 369] was 10 to 50 µM. The value for `C[C@H]1C[C@H](COc2cccnc2C(F)(F)F)CN(c2cnc3cnn(CC(F)F)c3n2)C1` [Compound 100, 1-(2,2-Difluoroethyl)-6-((3S,5S)-3-methyl-5-(((2-(trifluoromethyl)pyridin-3-yl)oxy)methyl)piperidin-1-yl)-1H-pyrazolo[3,4-b]pyrazine] was 10 to 50 µM; that for `O=C(N1CCC(Oc2ccccc2)CC1)C1(c2ccccc2)CCCC1` [Compound 404, 4-Phenoxy-1-(1-phenylcyclopentanecarbonyl)piperidine] was 10 to 50 µM. The compound `Cc1ccccc1OCC1CCCN(C(=O)[C@@H]2CCc3nccc(=O)n32)C1` (stereo partly drawn) [Compound 280, (6S)-6-(3-((o-Tolyloxy)methyl)piperidine-1-carbonyl)-7,8-dihydropyrrolo[1,2-a]pyrimidin-4(6H)-one] gave an EC50 greater than 100 µM.

For `C[C@@H](Oc1ccccc1C(F)(F)F)[C@@H]1CCCN(c2cnc3cnn(CC(F)F)c3n2)C1` [Compound 5b, 1-(2,2-difluoroethyl)-6-((R)-3-((R)-1-(2-(trifluoromethyl)phenoxy)ethyl)piperidin-1-yl)-1H-pyrazolo[3,4-b]pyrazine], the EC50 was in the range of 10 to 50 µM. With `COc1ccc(OCC2CCN(C(=O)c3cc(C)oc3C)CC2)cc1` [Compound 459], the EC50 is 10 to 50 µM. The value for `COc1ccc(OCC2CCN(C(=O)CN3CCCN(C)CC3)CC2)cc1` [Compound 474] was greater than 100 µM.
